The text below walks through data of PubChem BioAssay (NCI).

Each structure is given as a SMILES string. Values joined by “and” are separate entries in the source; they are usually repeats but may differ in a detail not shown here. Equal entries are not always repeated.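 48-hour exposure; five concentrations; linearly interpolated endpoints. At the GI50, growth is halved. The concentration for full growth arrest is given as TGI.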

Assay in all cases: growth of human tumour cells (NCI), 48 h
For test [1], the system named is SR leukemia.
The subject of test [2] is 786-0 renal.
For test [3], the system named is HT29 colon.
For test [4], the system named is SF-295 CNS.
Test [5] concerns UACC-257 melanoma.
Test [6] concerns M14 melanoma.
The subject of test [7] is MDA-MB-231 breast.
The subject of test [8] is U251 CNS.
The subject of test [9] is K-562 leukemia.
For test [10], the system named is SW-620 colon.

For `C=C1C(=O)O[C@H]2[C@H]1CC/C(COC(=O)NCCCCCCCCNC(=O)OC/C1=C/CC[C@@]3(C)O[C@H]3[C@H]3OC(=O)C(=C)[C@@H]3CC1)=C\CC[C@@]1(C)O[C@@H]21`, the GI50 is 0.317 µM in test [1]; 0.244 µM in test [2]; 0.228 µM in [3]; 1.95 µM in test [4]; 0.848 µM in test [5]; 0.272 µM in test [6]. The GI50 in test [7] was 0.2 µM; in [8], 0.578 µM; in test [9], 0.349 µM; in test [10], 0.239 µM. The TGI in test [1] amounted to 1.51 µM; in [2], 0.646 µM; in test [3], 0.554 µM; in test [4], 4.82 µM; in [5], 2.82 µM; in test [6], 0.8 µM. The TGI in test [7] amounted to 0.458 µM; in [8] it was 2 µM; in test [9], 1.37 µM; in [10], 0.686 µM.
For `Cc1cc(=O)oc2cc(OC/C=C3\CCC(=O)O3)ccc12`, the GI50 in test [2] was 10.5 µM; in test [3] it was 9.7 µM; in [4], 59 µM; in [5], 21.5 µM; in test [6] it was 9.51 µM; in [7], 16.9 µM. For the same compound, the GI50 in [8] is 14.5 µM; in test [10], 5.56 µM. The TGI in test [2] is 44.1 µM; in test [3] it was 29.3 µM; in test [4], more than 100 µM; in test [5], more than 62.1 µM; in [6], 25 µM; in test [7], 34.7 µM. Also, the TGI in test [8] was 30.9 µM; in [9], 7.84 µM; in [10], 28 µM.
Consider `COc1ccc2c(c1)C(=O)c1c-2c(Nc2cccc(C(C)=O)c2)nc2ccccc12`, for which the GI50 in [1] is 21.6 µM; in [2] it was 3.78 µM; in test [3], 21.2 µM; in test [4], 21.7 µM; in test [5], 23.9 µM; in [6], 15.5 µM. Also, the GI50 was 3.21 µM in [7], 3.09 µM in test [8], 44.7 µM in [9] and 21.2 µM in [10]. Moreover, the TGI in [1] was more than 100 µM; in test [2] it was 14 µM; in test [3], more than 100 µM; in test [4], 56.2 µM; in test [5] it was 61.7 µM; in test [6] it was 46.5 µM. The TGI is 12.7 µM in test [7], 12.3 µM in [8], more than 100 µM in [9] and more than 100 µM in [10].
For `O=C1C=CC2(C=C1)C[C@H](NC(=O)OCc1ccccc1)C(=O)O2`, the TGI in [1] was determined as 4.33 µM; in test [2], 27.6 µM; in test [3] it was 31.9 µM; in test [4], 49.5 µM; in test [5], 33.2 µM; in test [6], 32.6 µM. In addition, the TGI is 32.6 µM in [7], 37.1 µM in test [8], more than 32.5 µM in [9] and 18.2 µM in [10].
Regarding `Cc1ccc(S(=O)(=O)Nc2ccc(-c3cc(-c4cccc(F)c4)c(C#N)c(N)n3)cc2)cc1`, the GI50 was 2.7 µM in test [1]; 1.71 µM in test [2]; 3.4 µM in [3]; 3.33 µM in test [4]; 1.93 µM in test [5]; 2.01 µM in [6]. Besides, the GI50 in [7] is 1.95 µM; in [8] it was 2.75 µM; in test [9], 2.63 µM; in test [10], 2 µM. Besides, the TGI was 10.5 µM in test [1]; 3.12 µM in [2]; 12.3 µM in test [3]; 14.5 µM in test [4]; 4.24 µM in test [5]; 4.38 µM in test [6]. The TGI was 4.6 µM in test [7], 9.62 µM in test [8], more than 100 µM in [9] and 4.4 µM in [10].
As to `COc1ccc(OC)c(/C=C/c2nc(SCc3ccccc3)n(-c3ccc(Cl)cc3)n2)c1`, the GI50 in [1] was 3.53 µM; in [2] it was 7.66 µM; in [3], 3.93 µM; in test [4], 3.5 µM; in test [5], more than 100 µM; in test [6] it was 4.22 µM. For the same compound, the GI50 in test [7] was 30.9 µM; in [8] it was 5.35 µM; in [9], 4.23 µM; in test [10] it was 5.05 µM. Besides, the TGI in test [1] was more than 100 µM; in test [2], more than 100 µM; in test [3], 21.5 µM; in test [4], 36.6 µM; in test [5] it was more than 100 µM; in test [6] it was more than 100 µM. In addition, the TGI in [7], in [8], in test [9] and in test [10] was more than 100 µM each time.
With `COCCn1cc(-c2csc(-c3c[nH]c4ccc(Br)cc34)n2)c2cccnc21`, the GI50 in test [1] is 3.25 µM; in [2] it was 4.03 µM; in test [3] it was 3.36 µM; in test [4], 2.83 µM; in test [5], 8.69 µM; in [6], 3.27 µM. In addition, the GI50 in test [7] was 2.65 µM; in test [8], 6.18 µM; in test [9] it was 3.6 µM; in test [10] it was 3.3 µM. In addition, the TGI in [1] was more than 100 µM; in [2], more than 100 µM; in [3], more than 100 µM; in test [4], more than 100 µM; in [5], 64.2 µM; in test [6] it was 60.2 µM. The TGI was more than 100 µM in [7], 73.2 µM in [8], more than 100 µM in [9] and more than 100 µM in test [10].
As for `COc1cccc2c1C(=O)c1c(O)c3c(c(O)c1C2=O)CC(O)(C(=O)CO)CC3OC1CC(N)C(O)C(C)O1` (stereo not drawn), the GI50 in [1] was 0.465 µg/mL and 1.18 µg/mL; in [2], 6.54 µg/mL and 10.4 µg/mL; in [3], 15.7 µg/mL and 49.5 µg/mL; in test [4], 18.6 µg/mL and 14.3 µg/mL; in [5], 29.9 µg/mL and 25.1 µg/mL; in test [6] it was 9.35 µg/mL and 48.5 µg/mL. Moreover, the GI50 in test [7] was 44.1 µg/mL and 79.3 µg/mL; in [8], 2.22 µg/mL and 6.15 µg/mL; in test [9], 9.4 µg/mL and 25.2 µg/mL; in test [10] it was 7.14 µg/mL and 21.2 µg/mL. Also, the TGI was 7.2 µg/mL and 6.76 µg/mL in test [1]; 75 µg/mL and > 150 µg/mL in test [2]; 75 µg/mL and > 150 µg/mL in test [3]; 75 µg/mL and 116 µg/mL in test [4]; 75 µg/mL and 113 µg/mL in test [5]; 75 µg/mL and > 150 µg/mL in test [6]. In addition, the TGI in test [7] was 75 µg/mL and > 150 µg/mL; in test [8], 75 µg/mL and 44 µg/mL; in [9] it was 75 µg/mL and > 150 µg/mL; in [10] it was 75 µg/mL and > 150 µg/mL.
In the case of `O=C(O)CCC(C(=O)O)N1C(=O)C2C3CCC(C3)C2C1=O` (stereo not drawn), the TGI in test [1], in [2], in [3], in test [4], in test [5] and in test [6] was more than 100 µM each time. Also, the TGI in test [7], in test [8], in [9] and in [10] was more than 100 µM each time.
As for `Fc1ccc(Nc2nc3ccccc3c3occc23)cc1`, the GI50 was 2.24 µM in [1]; 1.03 µM in [2]; 3.39 µM in test [4]; 13.8 µM in test [5]; 0.873 µM in [6]; 1.07 µM in test [7]. The GI50 was 12.3 µM in [8], 3.66 µM in test [9] and 17 µM in test [10]. The TGI was determined as 16.4 µM in [1]; 10.6 µM in test [2]; 13.1 µM in [4]; 28.3 µM in test [5]; 13.7 µM in test [6]; 19.9 µM in test [7]. The TGI is 24.7 µM in test [8], more than 100 µM in test [9] and 30.7 µM in test [10].
Take `COc1cc(/C=C2\C[C@H]3[C@@H]4CC=C5C[C@@H](OC(C)=O)CC[C@]5(C)[C@H]4CC[C@]3(C)[C@H]2OC(C)=O)ccc1OCCN1CCCC1`: the GI50 in test [2] is 8.82 µM; in test [3] it was 11.7 µM; in test [4], 12.6 µM; in test [5], 10.8 µM; in [6], 8.56 µM; in [7] it was 9.01 µM. Also, in test [9], the GI50 was 4 µM. For the same compound, the TGI is 18.3 µM in test [2]; more than 50 µM in [3]; 25.4 µM in test [4]; 20.1 µM in test [5]; 30.4 µM in test [6]; 17 µM in test [7]. In [9], this compound registered a TGI of 12.6 µM.
Regarding `Cc1cc(Cl)cc(Cc2cc(Cl)cc(C)c2O)c1O`, the GI50 in [1] is 2.58 µM; in test [2], 2.48 µM; in [3] it was 3.63 µM; in test [4], 2.49 µM; in test [5] it was 3.02 µM; in test [6], 2.98 µM. For the same compound, the results for the GI50 in [7], in [8] and in test [9] were 2.46 µM, 2.93 µM and 3.08 µM, respectively. The TGI in [1] was determined as 10.8 µM; in test [2] it was 7.76 µM; in test [3] it was 10.7 µM; in [4], 7.14 µM; in test [5], 12.3 µM; in test [6] it was 11.3 µM. In addition, the results for the TGI in [7], in [8] and in test [9] were 8.22 µM, 11.3 µM and 12.1 µM, respectively.
Consider `O=[N+]([O-])c1cc2c([N+](=O)[O-])cccc2o1`, for which the TGI is 5.92 µM in [2]; 66.6 µM in test [3]; 42.4 µM in test [4]; 21.8 µM in test [5]; 24.9 µM in [6]; 27.6 µM in test [7]. Also, the TGI is more than 100 µM in test [8] and 7.99 µM in test [10].
Turning to `Cn1c2ccccc2c2c(=O)n(CCCC(=O)OC(=NC3CCCCC3)NC3CCCCC3)c3c(-c4ccccc4)nnn3c21`, the GI50 in test [2] is more than 100 µM; in test [3] it was more than 100 µM; in [4], 79 µM; in [5], more than 100 µM; in [6], more than 100 µM; in test [7] it was 71.7 µM. Moreover, the GI50 in [8], in [9] and in test [10] was more than 100 µM each time. For the same compound, the TGI in test [2], in test [3], in test [4], in test [5], in test [6] and in test [7] was more than 100 µM in each case. Moreover, the TGI in test [8], in [9] and in [10] was more than 100 µM each time.
Consider `CC1=C([Se]CC(OC(=O)[C@@H](CO)NC(=O)OC(C)(C)C)C(=O)NCCCCCC(=O)OCc2ccccc2)C(=O)c2ccccc2C1=O` (stereo partly drawn), for which the GI50 in test [1] is 1.6 µM; in test [2] it was 2.08 µM; in [3], 2.15 µM; in test [4], 0.321 µM; in [6] it was 1.79 µM; in test [7] it was 1.68 µM. The GI50 in test [8] is 0.94 µM; in [10], 1.72 µM. The TGI in test [1] was determined as 6.55 µM; in [2], 3.53 µM; in [3], 3.97 µM; in test [4], 1.51 µM; in test [6], 3.3 µM; in test [7], 3.19 µM. Also, the results for the TGI in [8] and in [10] were 2.17 µM and 3.25 µM, respectively.
Turning to `CN1CCN(Cc2cc(NC(=O)c3cccc(C#Cc4cccc5[nH]nc(N)c45)c3)cc(C(F)(F)F)c2)CC1`, the GI50 in test [2] was 1.91 µM; in test [3], 1.53 µM; in test [5] it was 1.83 µM; in test [6], 1.35 µM; in test [7], 1.38 µM; in test [8], 1.81 µM. The GI50 in [10] is 1.5 µM. For the same compound, the TGI came to 3.39 µM in [2]; 2.93 µM in test [3]; 3.39 µM in test [5]; 2.9 µM in [6]; 2.73 µM in test [7]; 3.22 µM in test [8]. The TGI in [10] is 2.89 µM.
